Columns and labels:
PRMT5/MEP50 complex = PRMT5/MEP50 complex (Homo sapiens, UniProt O14744); assay: Inhibition of recombinant human fetal brain FLAG-tagged PRMT5/full length human testis 6His-tagged MEP50 expressed in baculovirus infected insect Sf9 cells using human histone H4 (1 to 15 residues) as substrate preincubated for 30 mins followed by [3H]-SAM addition
[1] = Antiproliferative activity against human Z138 cells assessed as inhibition of cell viability after 5 days by Cell-Titer Glo assay; type: functional, cell-based; conditions: Z-138, 120 h

Sequence of PRMT5/MEP50 complex (O14744 whole entry, the tested form may be a part): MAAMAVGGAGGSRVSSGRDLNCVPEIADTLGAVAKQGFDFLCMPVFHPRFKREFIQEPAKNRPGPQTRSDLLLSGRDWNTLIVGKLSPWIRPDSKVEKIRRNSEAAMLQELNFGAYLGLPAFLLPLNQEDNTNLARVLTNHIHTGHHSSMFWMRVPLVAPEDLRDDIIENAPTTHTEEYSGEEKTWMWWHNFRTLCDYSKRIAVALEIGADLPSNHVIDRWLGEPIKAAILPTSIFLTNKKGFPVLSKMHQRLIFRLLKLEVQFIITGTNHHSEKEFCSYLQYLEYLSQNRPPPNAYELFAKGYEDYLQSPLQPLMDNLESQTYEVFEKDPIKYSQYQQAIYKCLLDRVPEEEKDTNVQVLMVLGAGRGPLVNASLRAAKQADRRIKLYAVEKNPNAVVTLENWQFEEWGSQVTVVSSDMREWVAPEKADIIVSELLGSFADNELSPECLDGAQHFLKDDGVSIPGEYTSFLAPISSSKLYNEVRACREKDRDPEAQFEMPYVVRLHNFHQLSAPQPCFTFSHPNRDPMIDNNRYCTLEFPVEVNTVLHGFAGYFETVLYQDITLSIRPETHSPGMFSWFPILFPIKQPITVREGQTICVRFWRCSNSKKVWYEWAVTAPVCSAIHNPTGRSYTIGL
Sequence of PRMT5/MEP50 complex (Q9BQA1 whole entry, further chain, the tested form may be a part): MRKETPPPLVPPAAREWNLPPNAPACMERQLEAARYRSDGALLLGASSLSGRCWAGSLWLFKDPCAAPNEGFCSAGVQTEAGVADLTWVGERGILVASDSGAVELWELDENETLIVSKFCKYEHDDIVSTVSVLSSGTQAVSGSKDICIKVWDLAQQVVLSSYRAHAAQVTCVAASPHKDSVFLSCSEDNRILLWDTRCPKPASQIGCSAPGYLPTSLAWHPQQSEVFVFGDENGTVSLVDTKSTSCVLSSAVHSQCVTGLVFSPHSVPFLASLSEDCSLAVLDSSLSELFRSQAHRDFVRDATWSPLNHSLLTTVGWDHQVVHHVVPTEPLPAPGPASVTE

Structure (SMILES)	IC50 (PRMT5/MEP50 complex) [µM]	EC50 [1] [µM]
OC(COC1Cc2ccccc2C1)CN1CCc2ccccc2C1 (stereo not drawn)	1 to 10	> 40
COc1cccc2c1CN(CC(O)COc1cccc(CNC3CCCC3)c1)CC2 (stereo not drawn)	10 to 40	10 to 40
OC(COCc1ccccc1)CN1CCc2ccccc2C1 (stereo not drawn)	10 to 40	> 40
OC(COc1ccc2c(c1)OCO2)CN1CCc2ccccc2C1 (stereo not drawn)	1 to 10	> 20
Cc1nn(-c2ccccc2)c(C)c1COCC(O)CN1CCc2ccccc2C1 (stereo not drawn)	1 to 10	> 40
OC(COCc1c(Cl)cccc1Cl)CN1CCc2ccccc2C1 (stereo not drawn)	1 to 10	10 to 40
COc1cc2c(cc1OC)CN(CC(O)COc1cccc(CNC3CCCC3)c1)CC2 (stereo not drawn)	> 40	10 to 40
CCn1ccnc1COCC(O)CN1CCc2ccccc2C1 (stereo not drawn)	> 40	> 40
OC(COCc1ccc(OCc2ccccc2)cc1)CN1CCc2ccccc2C1 (stereo not drawn)	1 to 10	> 20
OC(COc1ccc(-n2cncn2)cc1)CN1CCc2ccccc2C1 (stereo not drawn)	1 to 10	> 20
COc1cccc(COCC(O)CN2CCc3ccccc3C2)c1 (stereo not drawn)	1 to 10	> 40
O=C(c1ccc(Cn2ccc(-c3ccc(OCC(O)CN4CCc5ccccc5C4)cc3)n2)cc1)N1CCCC1 (stereo not drawn)	1 to 10	10 to 40
O=S1(=O)CCN(c2ccc(OCC(O)CN3CCc4ccccc4C3)cc2)CC1 (stereo not drawn)	1 to 10	> 20
OC(COCC1COc2ccccc2O1)CN1CCc2ccccc2C1 (stereo not drawn)	0.101 to 40	> 40
OC(COc1ccc(Cc2ccccc2)cc1)CN1CCc2ccccc2C1 (stereo not drawn)	0.101 to 1	
OC(COCc1cccnc1)CN1CCc2ccccc2C1 (stereo not drawn)	10 to 40	
CC1CN(CC(O)COc2cccc(-c3ccc4ncn(C)c4c3)c2)Cc2ccccc21 (stereo not drawn)	1 to 10	
OC(CNc1cc(-c2ccc3ncn(C4CNC4)c3c2)ccn1)CN1CCc2ccccc2C1 (stereo not drawn)	< 0.1	
COc1ccc2c(c1)CN(CC(O)COc1cccc(-c3ccc4ncn(C)c4c3)c1)CC2 (stereo not drawn)	10 to 40	
OC(COc1cccc(-c2ccncc2F)c1)CN1CCc2ccccc2C1 (stereo not drawn)	1 to 10	
Cn1cnc2ccc(-c3cccc(OCC(O)CN4CCc5ccc(Cl)cc5C4)c3)cc21 (stereo not drawn)	1 to 10	

Structure (SMILES)	IC50 (PRMT5/MEP50 complex) [µM]	EC50 [1] [µM]
CCC1c2ccccc2CCN1CC(O)COc1cccc(-c2ccc3ncn(C)c3c2)c1 (stereo not drawn)	0.101 to 1	> 20
C[C@H](Oc1cccc2cccnc12)C(=O)NC[C@@H](O)CN1CCc2ccccc2C1	1 to 10	
OC(COc1cccc(OCc2ccccc2)c1)CN1CCc2ccccc2C1 (stereo not drawn)	1 to 10	
Cc1ccc2c(c1)CN(CC(O)COc1cccc(-c3ccc4ncn(C)c4c3)c1)CC2 (stereo not drawn)	1 to 10	
OCc1ccc(-c2cccc(OCC(O)CN3CCc4ccccc4C3)c2)cc1 (stereo not drawn)	1 to 10	
OC(COc1ccc(OCc2ccccc2)cc1)CN1CCc2ccccc2C1 (stereo not drawn)	1 to 10	
O=C1CN(Cc2cccnc2)CCN1CC(O)CN1CCc2ccccc2C1 (stereo not drawn)	1 to 10	
OC(COc1cccc(-c2ccncc2)c1)CN1CCc2ccccc2C1 (stereo not drawn)	1 to 10	
Cn1cnc2ccc(-c3cccc(OCC(O)CN4CCc5ccccc5C4COc4ccccc4)c3)cc21 (stereo not drawn)	> 40	
OC(COc1cccc(-c2cc(Cl)cc(C(F)(F)F)c2)c1)CN1CCc2ccccc2C1 (stereo not drawn)	1 to 10	
OC(COc1cccc(-c2cccc(Cl)c2)c1)CN1CCc2ccccc2C1 (stereo not drawn)	1 to 10	
Oc1ccc(-c2cccc(OCC(O)CN3CCc4ccccc4C3)c2)cc1F (stereo not drawn)	1 to 10	
Cn1cnc2nc(-c3cccc(OCC(O)CN4CCc5ccccc5C4)c3)ncc21 (stereo not drawn)	1 to 10	
OC(COc1ccc(-c2ccn[nH]2)cc1)CN1CCc2ccccc2C1 (stereo not drawn)	1 to 10	
Cn1cnc2ccc(-c3cccc(OCC(O)CN4Cc5ccccc5C4)c3)cc21 (stereo not drawn)	1 to 10	
COc1cccc2c1CN(CC(O)COc1cccc(-c3ccc4ncn(C)c4c3)c1)CC2 (stereo not drawn)	1 to 10	
O=C(Nc1ccccn1)c1cccc(OCC(O)CN2CCc3ccccc3C2)c1 (stereo not drawn)	0.101 to 1	
O=C(Nc1cccnc1)c1cccc(OCC(O)CN2CCc3ccccc3C2)c1 (stereo not drawn)	1 to 10	
Cn1cnc2ccc(-c3cccc(OCC(O)CN4CCc5ccccc5C4CC(N)=O)c3)cc21 (stereo not drawn)	> 40	
CC(=O)N1CCC(n2cnc3ccc(-c4cccc(OCC(O)CN5CCc6ccccc6C5)c4)cc32)CC1 (stereo not drawn)	0.101 to 1	
COc1ccc(Cn2nccc2-c2ccc(OC[C@@H](O)CN3CCc4ccccc4C3)cc2)cc1	> 40	

Structure (SMILES)	IC50 (PRMT5/MEP50 complex) [µM]	EC50 [1] [µM]
CN(CC(O)CN1CCc2ccccc2C1)C(=O)CCc1ccccc1 (stereo not drawn)	1 to 10	
CN(C(=O)c1cnco1)c1cccc(OCC(O)CN2CCc3ccccc3C2)c1 (stereo not drawn)	1 to 10	
Nc1cccc(C(=O)NCC(O)CN2Cc3ccccc3C2)c1 (stereo not drawn)	1 to 10	
CN(C(=O)c1cccnc1)c1cccc(OCC(O)CN2CCc3ccccc3C2)c1 (stereo not drawn)	1 to 10	
OC(COc1ccccc1-c1ccno1)CN1CCc2ccccc2C1 (stereo not drawn)	1 to 10	
Cc1cc(OCC(O)CN2CCc3ccccc3C2)c(C)cc1CN1CCOCC1 (stereo not drawn)	0.101 to 1	
OC(COc1ccccc1N1CCNCC1)CN1CCc2ccccc2C1 (stereo not drawn)	10 to 40	
O=c1cc(Nc2ccccc2)ccn1C[C@H](O)CN1CCc2ccccc2C1	1 to 10	
O=C1CN(Cc2ccccn2)CCN1CC(O)CN1CCc2ccccc2C1 (stereo not drawn)	1 to 10	
COc1cccc2c1CCN(CC(O)COc1cccc(-c3ccc4ncn(C)c4c3)c1)C2 (stereo not drawn)	1 to 10	
Cn1cnc2ccc(-c3cccc(OCC(O)CN4CCc5ccccc5C4Cc4ccccc4)c3)cc21 (stereo not drawn)	> 40	
Cn1cnc2ccc(-c3cccc(OCC(O)CN4CCc5c(Cl)cccc5C4)c3)cc21 (stereo not drawn)	1 to 10	
OC(COc1cccc(-c2cncc(F)c2)c1)CN1CCc2ccccc2C1 (stereo not drawn)	1 to 10	
CN(CC(O)CN1CCc2ccccc2C1)C(=O)COc1ccccc1 (stereo not drawn)	10 to 50	
CC1c2ccccc2CCN1CC(O)COc1cccc(CNC2CCCC2)c1 (stereo not drawn)	1 to 10	
Cc1cccc2c1CN(CC(O)COc1cccc(-c3ccc4ncn(C)c4c3)c1)CC2 (stereo not drawn)	1 to 10	
O=C(Cn1ccc2cnc(-c3cccc(OCC(O)CN4CCc5ccccc5C4)c3)nc21)N1CCCC1 (stereo not drawn)	0.101 to 1	
COc1cc2c(cc1OC)CN(CC(O)COc1cccc(-c3ccc4ncn(C)c4c3)c1)CC2 (stereo not drawn)	> 40	
OC(COc1cccc(-c2cccc(Oc3ccccc3)c2)c1)CN1CCc2ccccc2C1 (stereo not drawn)	1 to 10	
O=C(c1cncc(-c2cccc(OCC(O)CN3CCc4ccccc4C3)c2)c1)N1CCCC1 (stereo not drawn)	1 to 10	
CN1CC(n2cnc3ccc(-c4ccnc(NCC(O)CN5CCc6ccccc6C5)c4)cc32)C1 (stereo not drawn)	< 0.1	

Second part, led by results:

IC50 (PRMT5/MEP50 complex) [µM]	Structure (SMILES)	EC50 [1] [µM]
> 40	CN1CCC(OCC(O)CN2CCc3ccccc3C2)C1 (stereo not drawn)	> 40
> 40	OC(COCC1CCCCO1)CN1CCc2ccccc2C1 (stereo not drawn)	> 40
10 to 40	OC(COC1CCOCC1)CN1CCc2ccccc2C1 (stereo not drawn)	> 40
1 to 10	OC(COCC1CCCCC1)CN1CCc2ccccc2C1 (stereo not drawn)	> 40
> 40	OC(COC1CCCNC1)CN1CCc2ccccc2C1 (stereo not drawn)	> 40
1 to 10	OC(COc1cccc(CNC2CCCC2)c1)CN1Cc2ccccc2C1 (stereo not drawn)	10 to 50
1 to 10	OC(COc1ccc(C2CCNCC2)cc1)CN1CCc2ccccc2C1 (stereo not drawn)	10 to 40
1 to 10	CC(C)(C)OC(=O)N1CCC(OCC(O)CN2CCc3ccccc3C2)CC1 (stereo not drawn)	> 40
1 to 10	O=C(COc1ccccc1)NC[C@@H](O)CN1CCc2ccccc2C1	
< 0.1	O=C(NC[C@H](O)CN1CCc2ccccc2C1)c1cccc(NC2CCOCC2)c1	0.101 to 1
1 to 10	CC(C)(C)OC(=O)Nc1ccccc1OCC(=O)NCC(O)CN1CCc2ccccc2C1 (stereo not drawn)	
1 to 10	O=C(NCC(O)CN1CCc2ccccc2C1)c1cccc(C(=O)N2CCOCC2)c1 (stereo not drawn)	
1 to 10	OC(COc1cccc(C2CCCCC2)c1)CN1CCc2ccccc2C1 (stereo not drawn)	
0.101 to 1	O[C@H](COc1cccc(CNC2CCCC2)c1)CN1CCc2ccccc2C1	10 to 40
0.101 to 1	CC(Nc1cccc(C(=O)NCC(O)CN2CCc3ccccc3C2)c1)C1CCOCC1 (stereo not drawn)	
1 to 10	OC(COc1ccccc1C1CCCCC1)CN1CCc2ccccc2C1 (stereo not drawn)	
> 50	CC(Oc1ccccc1S(N)(=O)=O)C(=O)NCC(O)CN1CCc2ccccc2C1 (stereo not drawn)	
1 to 10	CS(=O)(=O)N1CCN(CC(O)CN2CCc3ccccc3C2)C(=O)C1 (stereo not drawn)	
10 to 50	O=C(COc1ccccc1-c1c[nH]cn1)NCC(O)CN1CCc2ccccc2C1 (stereo not drawn)	
< 0.1	O=C(COc1cccc2c1CCCN2Cc1ccccc1)NCC(O)CN1CCc2ccccc2C1 (stereo not drawn)	

IC50 (PRMT5/MEP50 complex) [µM]	Structure (SMILES)	EC50 [1] [µM]
10 to 50	O=C(CC1CCCCC1)NC[C@@H](O)CN1CCc2ccccc2C1	
< 0.1	O=C(NCC(O)CN1CCc2ccccc2C1)c1cncc(NC2CCOCC2)c1 (stereo not drawn)	
1 to 10	O=C1CC(c2ccccc2)CCN1C[C@@H](O)CN1CCc2ccccc2C1 (stereo partly drawn)	
1 to 10	NS(=O)(=O)c1ccc(OCC(=O)NCC(O)CN2CCc3ccccc3C2)cc1 (stereo not drawn)	
1 to 10	CN(C)c1cncc(OCC(=O)NCC(O)CN2CCc3ccccc3C2)c1 (stereo not drawn)	
1 to 10	O=C(CC1CCCCC1)NC[C@H](O)CN1CCc2ccccc2C1	
> 10	CS(=O)(=O)Nc1ncccc1OCC(=O)NCC(O)CN1CCc2ccccc2C1 (stereo not drawn)	
1 to 10	O=C(COc1cccc(NC2CCOCC2)n1)NCC(O)CN1CCc2ccccc2C1 (stereo not drawn)	
> 50	CN1CCN(CC(O)CN2CCc3ccccc3C2)C(=O)C1 (stereo not drawn)	
> 10	CN(C)c1cccnc1OCC(=O)NCC(O)CN1CCc2ccccc2C1 (stereo not drawn)	
1 to 10	OC(COC1CCN(Cc2ccccc2)C1)CN1CCc2ccccc2C1 (stereo not drawn)	
10 to 40	O=C(NC1CCOCC1)c1cccc(NCC(O)CN2CCc3ccccc3C2)c1 (stereo not drawn)	
0.101 to 1	OC(COc1cccc(CNC2CCCCC2)c1)CN1CCc2ccccc2C1 (stereo not drawn)	
0.101 to 1	CN(c1cccc(C(=O)NCC(O)CN2CCc3ccccc3C2)c1)C1CCOCC1 (stereo not drawn)	
10 to 40	CN(CC(O)CN1CCc2ccccc2C1)c1cccc(C(=O)NC2CCOCC2)c1 (stereo not drawn)	
1 to 10	OC(COc1cccc(CN2CCCCC2)c1)CN1CCc2ccccc2C1 (stereo not drawn)	
1 to 10	O=C(COc1ccc(F)cc1)NCC(O)CN1CCc2ccccc2C1 (stereo not drawn)	
1 to 10	O=C(COc1ccccc1C1CNC1)NCC(O)CN1CCc2ccccc2C1 (stereo not drawn)	
1 to 10	CC(C)(C)OC(=O)N1CCC(OCC(O)CN2CCc3ccccc3C2)C1 (stereo not drawn)	
0.101 to 1	O=C(NCC(O)CN1CCc2ccccc2C1)c1cccc(CN2CCOCC2)c1 (stereo not drawn)	

Reference: ChEMBL document CHEMBL3879915, “Methods of inhibiting PRMT5” (2014)
